# Measured values taken from US8691280B2, “Microsphere comprising an organic lanthanide metal complex” (UMC Utrecht Holding B.V., priority 2007, dated 2014).
# Assay: Determination of lanthanide (holmium, gadolinium) content of microspheres by complexometric titration and ICP-OES
# Assay type: physicochemical
# Settings: Table 1, measured composition
# Protocol: The holmium content of the microspheres was determined using the complexometric titration for aluminium that has been described in the European Pharmacopoeia. In short, approximately 50 mg of the dried microspheres is accurately weighed, and dissolved in 1 N NaOH. To this solution 1 N HCl is added and the solution is diluted to 50 ml, 5 grams hexamethylentetramine is added and the pH is adjusted to 5, using 1 N HCl. Approximately 50 mg of xylenol orange is added as an indicator, and the solution is then titrated with 0.01 M EDTA, until the colour changes from purple to yellow. Analyses were performed in triplicate.
# The holmium content was measured by inductively coupled plasma optical emission spectrometry (IPC-OES). The microspheres are weighed and destructed at 100° C. with 5 ml 1 N NaOH, which was evaporated to dryness. 15 ml of 2% Nitric acid was added followed by a 1 in 50 dilution. Samples were introduced in an Optima 4300 CV (PerkinElmer; Norwalk, USA) and […] was measured at three different wavelengths (345.600, 339.898 and 347.426 nm) to accurately determine the holmium content.
# The gadolinium content of the GdAcAc microspheres was determined in the same way as described in Example 1.
substance,measurement,value
holmium acetylacetonate [HoAcAc crystals],"Ho, measured elemental composition",31.2 % w/w
